The text below walks through data of patent publication US20200015481A1, “SYNERGISTIC WEED CONTROL FROM APPLICATIONS OF PYRIDINE CARBOXYLIC ACID HERBICIDES AND PHOTOSYSTEM II INHIBITORS” (Dow AgroSciences, LLC, priority 2014, published 2020).

Each structure is given as a SMILES string.

The test system of series [1] is rice (ORYSA). Briefly: Postemergence crop phytotoxicity, greenhouse (Example 3). It counts as in vivo, Oryza sativa. The source says:
(§1) Compound 1 was formulated as an EC and combined with bentazon, isoproturon, metribuzin and atrazine.

The test system of series [2] is common sunflower (Helianthus annuus, HELAN). The series is described as follows: Postemergence herbicidal activity, greenhouse (Example 3). It counts as in vivo.
Description: as §1

In series [3] the test system is ivy-leaved speedwell (VERHE, Veronica hederifolia). The series is described as above. It counts as in vivo.
Description: as §1

Series [4] relates to barnyardgrass (Echinochloa crus-galli, ECHCG). Described as above. In kind it is in vivo.
Description: as §1

Series [5] relates to wild pansy (VIOTR, Viola tricolor). Described as above. It counts as in vivo.
Description: as §1

In series [6] the test system is poinsettia (Euphorbia heterophylla, EPHHL). The series is described as above. In kind it is in vivo.
Description: as §1

Series [7] relates to nutsedge (Cyperus esculentus, CYPES). Described as above. In kind it is in vivo.
Description: as §1

Series [8] has as its system rape (Brassica napus, BRSNN). The series is described as above. It counts as in vivo.
Description: as §1

For series [9], the system named is thistle (Cirsium arvense, CIRAR). Described as above. It counts as in vivo.
Description: as §1

Series [10] relates to pigweed (Amaranthus retroflexus, AMARE). The description is as above. In kind it is in vivo.
Description: as §1

For series [11], the system named is large crabgrass (Digitaria sanguinalis, DIGSA). Described as above. In kind it is in vivo.
Description: as §1

In series [12] the test system is velvetleaf (Abutilon theophrasti, ABUTH). The description is as above. In kind it is in vivo.
Description: as §1

For series [13], the system named is winter wheat (TRZAW). The series is described as follows: Postemergence crop phytotoxicity, greenhouse (Example 2). On the procedure:
(§2) Stocks solutions of the compound mixtures were prepared following the same procedure.

Series [14] relates to maize (ZEAMX). The series is described as above. As for the experimental part: as §2
The test system of series [15] is pigweed (AMARE, Amaranthus retroflexus). Briefly: Postemergence herbicidal activity, greenhouse (Example 2). It counts as in vivo. The conditions noted are these: 20-22 d. As for the experimental part:
as §2

The subject of series [16] is ivyleaf morningglory (Ipomoea hederacea, IPOHE). Described as above. It counts as in vivo. The conditions noted are these: 20-22 d. On the procedure:
as §2

The test system of series [17] is poinsettia (Euphorbia heterophylla, EPHHL). The series is described as above. It counts as in vivo. The conditions noted are these: 20-22 d. As for the experimental part: as §2
Series [18] concerns nutsedge (Cyperus esculentus, CYPES). The description is as above. It counts as in vivo. The conditions noted are these: 20-22 d. As for the experimental part: as §2
In series [19] the test system is corn (ZEAMX). Briefly: Postemergence crop phytotoxicity, greenhouse (Example 3). In kind it is in vivo, Zea mays. As to conditions: 20-22 d.
Description: as §1

In series [20] the test system is winter wheat (TRZAW). The series is described as above. The conditions noted are these: 20-22 d. In kind it is in vivo, Triticum aestivum.
Description: as §1

The subject of series [21] is pigweed (AMARE, Amaranthus retroflexus). The series is described as follows: Postemergence herbicidal activity, greenhouse (Example 1). The conditions noted are these: 20-22 d.
Series [22] concerns thistle (CIRAR, Cirsium arvense). The series is described as above. As to conditions: 20-22 d.
Series [23] relates to spring barley (HORVS). The series is described as follows: Postemergence crop phytotoxicity, greenhouse (Example 1). As to conditions: Bromoxynil 70 g ai/ha, 20-22 d.
For series [24], the system named is winter wheat (TRZAW). The series is described as above. The conditions noted are these: 20-22 d.
The mark [25] stands for this setting: Compound 1 5 g ae/ha, 20-22 d (Tables 4-6).
Setting [26] is: Compound 1 5 g ae/ha, 20-22 d (Table 7).
Where [27] appears, read: Isoproturon 150 g ai/ha, 20-22 d.

In the case of `Nc1c(F)c(-c2ccc3cc[nH]c3c2F)nc(C(=O)O)c1Cl` [Compound 1], the “Effect (% visual injury) Obs” value was determined as 0% in [1] (Oryza sativa (rice), in vivo); 97% in series [2] (setting [25]); 40% in series [3] (setting [26]); 60% in series [4] (setting [25]); 5% in series [5] (setting [26]); 10% in [5] (setting [25]). Besides, the “Effect (% visual injury) Obs” value in [6] (setting [26]) is reported as 97%; in [6] (setting [25]), 97%; in series [7] (setting [25]) it was 10%; in [8] (setting [25]), 50%; in series [9] (setting [25]) it was 20%; in series [10] (setting [26]) it was 65%. Also, the “Effect (% visual injury) Obs” value in series [10] (setting [25]) was 93%; in series [11] (setting [25]) it was 0%; in series [12] (setting [25]), 10%.

In the case of `Nc1c(F)c(-c2ccc3cc[nH]c3c2F)nc(C(=O)OCc2ccccc2)c1Cl` [Compound 2], the “Effect (% visual injury) Obs” value is on record as 3% in series [13] (Triticum aestivum (winter wheat), in vivo); 3% in series [14] (Zea mays (maize), in vivo); 88% in [15] (Compound 2 5 g ae/ha); 100% in series [15] (Compound 2 10 g ae/ha); 10% in series [16] (Compound 2 5 g ae/ha); 20% in [16] (Compound 2 10 g ae/ha). The “Effect (% visual injury) Obs” value in [17] (Compound 2 5 g ae/ha) is reported as 35%; in series [17] (Compound 2 10 g ae/ha) it was 75%; in series [18] (Compound 2 5 g ae/ha), 5%; in series [18] (Compound 2 10 g ae/ha), 10%.

With `CC(C)N1C(=O)c2ccccc2NS1(=O)=O` [Bentazon], the “Effect (% visual injury) Obs” value in series [19] (Bentazon 60 g ai/ha) is recorded as 0%; in [20] (Bentazon 60 g ai/ha), 0%; in series [4] (Bentazon 60 g ai/ha, 20-22 d), 0%; in series [6] (Bentazon 60 g ai/ha, 20-22 d), 0%; in [7] (Bentazon 60 g ai/ha, 20-22 d), 0%; in [8] (Bentazon 60 g ai/ha, 20-22 d) it was 20%. In addition, the “Effect (% visual injury) Obs” value is listed as 0% in series [9] (Bentazon 60 g ai/ha, 20-22 d); 10% in [10] (Bentazon 60 g ai/ha, 20-22 d); 0% in series [11] (Bentazon 60 g ai/ha, 20-22 d); 0% in series [12] (Bentazon 60 g ai/ha, 20-22 d).

Take `N#Cc1cc(Br)c(O)c(Br)c1` [Bromoxynil]: the “Effect (% visual injury) Obs” value came to 0% in series [21] (Bromoxynil 140 g ai/ha); 0% in series [13] (TRZAW, Bromoxynil 70 g ai/ha, postemergence, 20-22 d); 0% in [14] (ZEAMX, Bromoxynil 70 g ai/ha, postemergence, 20-22 d); 20% in series [15] (Bromoxynil 70 g ai/ha); 25% in series [16] (Bromoxynil 70 g ai/ha); 5% in [17] (Bromoxynil 70 g ai/ha). Further, the “Effect (% visual injury) Obs” value in series [18] (Bromoxynil 70 g ai/ha) came to 0%; in [22] (Bromoxynil 70 g ai/ha), 40%; in series [23], 0%; in series [24] (Bromoxynil 70 g ai/ha) it was 0%; in series [24] (Bromoxynil 140 g ai/ha), 0%.

`CSc1nnc(C(C)(C)C)c(=O)n1N` [Metribuzin]: the “Effect (% visual injury) Obs” value in series [1] (ORYSA, Metribuzin 25 g ai/ha, postemergence, 20-22 d) is 0%; in [19] (Metribuzin 25 g ai/ha), 0%; in series [20] (Metribuzin 25 g ai/ha), 0%; in series [4] (Metribuzin 25 g ai/ha, 20-22 d), 0%; in [6] (Metribuzin 25 g ai/ha, 20-22 d), 0%; in [7] (Metribuzin 25 g ai/ha, 20-22 d), 0%. Besides, the “Effect (% visual injury) Obs” value was 0% in series [8] (Metribuzin 25 g ai/ha, 20-22 d); 10% in [9] (Metribuzin 25 g ai/ha, 20-22 d); 10% in [10] (Metribuzin 25 g ai/ha, 20-22 d).

In the case of `Nc1c(F)c(-c2ccc3cc[nH]c3c2F)nc(C(=O)[O-])c1Cl.[K+]` [Compound 7], the “Effect (% visual injury) Obs” value came out at 70% in series [21] (Compound 7 8.75 g ae/ha), 50% in series [22] (Compound 7 5 g ae/ha) and 65% in series [22] (Compound 7 10 g ae/ha).

For `CC(C)c1ccc(NC(=O)N(C)C)cc1` [Isoproturon], the “Effect (% visual injury) Obs” value is 0% in series [2] (setting [27]); 0% in series [4] (setting [27]); 0% in series [5] (setting [27]); 0% in series [7] (setting [27]); 0% in [8] (setting [27]); 10% in series [9] (setting [27]).

For `CCNc1nc(Cl)nc(NC(C)C)n1` [Atrazine], the “Effect (% visual injury) Obs” value in series [3] (Atrazine 450 g ai/ha, 20-22 d) turned out to be 45%; in [5] (Atrazine 450 g ai/ha, 20-22 d), 5%; in [6] (Atrazine 450 g ai/ha, 20-22 d), 0%; in series [10] (Atrazine 450 g ai/ha, 20-22 d) it was 50%.
